Measurements reported in US11040036B2, “Pyruvate kinase activators for use in treating blood disorders” (Agios Pharmaceuticals, Inc., priority 2017, dated 2021).

Tests used:
wild type PKR [1] = molecular target: T1, wild type PKR (Homo sapiens, UniProt P30613); experiment: PKR mutant assay (AC50), wild type PKR; type: biochemical; details: wild type PKR enzyme; read-out: PKR WT AC50
Procedure: (§1) Example 11. PKR Mutant Assay
(§2) PKR or PKR mutant enzyme solution was diluted into a reaction mix, which contains 1× buffer (100 mM KCl, 50 mM Tris pH 7.5, 5 mM MgCl2) as well as PEP (cont depends on enzyme), 180 μM NADH, 0.5 units LDH, 1 mM DTT, 0.03% BSA; final assay concentrations after 1.11 fold dilution are indicated.
(§3) 2 μL of test compound was added into wells first, and then 180 μL reaction mix was added.
(§4) Reactions mixture with test compound was assembled except for ADP, and plates were stored for 60 minutes at room temperature.
(§5) 20 uL ADP was added to start reaction at room temperature and reaction progress was measured as changes in absorbance at 340 nm wavelength at room temperature.
(§6) Test Compound Preparation:
(§7) Test compound stock was made at 100× concentration in 100% DMSO (10 mM)
(§8) 1 to 3 dilutions were made for 11 points (i.e. 50 μl of first concentration added to 100 μl 100% DMSO to yield 3.33 mM, 50 μl of this added to 100 μl DMSO to yield 1.11 mM, and so forth) • 1 to 100 dilution into assay (2 μl in 200 μl) yielded starting concentration of 100 μM, decreasing 3 fold for 11 points.
(§9) Assay Buffer: 100 mM KCl, 50 mM Tris 7.5, 5 mM MgCl2, 1 ruM DTT, 0.03% BSA
(§10) Reaction Mixture: PKR mutant enzyme: 40-400 ng/well; ADP: 0.2-1.65 mM; PEP: 0.1-0.5 mM; NADH:180 μM; LDH: 0.5 units (Sigma #59023); DTT: 1 mM; BSA: 0.03%.

PKR K410E = PKR K410E (Homo sapiens, UniProt P30613, K410E); experiment: PKR mutant assay (AC50), PKR K410E; type: biochemical; details: PKR K410E mutant enzyme
PKR K410E, sequence (P30613 whole entry K410E): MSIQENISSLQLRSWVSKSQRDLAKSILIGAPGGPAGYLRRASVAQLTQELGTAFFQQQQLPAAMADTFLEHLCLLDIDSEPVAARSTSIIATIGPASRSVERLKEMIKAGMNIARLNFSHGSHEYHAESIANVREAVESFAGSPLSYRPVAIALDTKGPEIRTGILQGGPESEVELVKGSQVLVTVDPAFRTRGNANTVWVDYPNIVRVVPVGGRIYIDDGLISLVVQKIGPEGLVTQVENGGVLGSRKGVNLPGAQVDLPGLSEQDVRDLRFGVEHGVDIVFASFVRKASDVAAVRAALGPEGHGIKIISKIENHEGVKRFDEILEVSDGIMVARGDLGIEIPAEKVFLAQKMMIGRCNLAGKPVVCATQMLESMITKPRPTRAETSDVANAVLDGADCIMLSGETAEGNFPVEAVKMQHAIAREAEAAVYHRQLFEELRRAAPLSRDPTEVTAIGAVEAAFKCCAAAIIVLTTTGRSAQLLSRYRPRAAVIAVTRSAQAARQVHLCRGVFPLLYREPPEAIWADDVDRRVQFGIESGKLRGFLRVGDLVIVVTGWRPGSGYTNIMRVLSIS
Procedure: as §1, §2, §3, §4, §5, §6, §7, §8, §9, §10

PKR R510Q = PKR R510Q (Homo sapiens, UniProt P30613, R510Q); experiment: PKR mutant assay (AC50), PKR R510Q; type: biochemical; details: PKR R510Q mutant enzyme; read-out: PK R510Q AC50
PKR R510Q, sequence (P30613 whole entry R510Q): as the sequence (P30613 whole entry K410E) above, with E410K, R510Q counted along it
Procedure: as §1, §2, §3, §4, §5, §6, §7, §8, §9, §10

wild type PKR [2] = molecular target: T1, wild type PKR; experiment: Cell based ATP assay in purified red blood cells; set-up: endogenous in cells; host or cells: purified red blood cells from blood of healthy volunteers; details: RBCs, overnight at 37° C., ATP levels by Cell-Titer-Glo
Procedure: Example 16. Red Blood Cell (RBC) Purification
Fresh blood drawn from healthy volunteers into K2EDTA tubes was collected. Whole blood was pelleted by spinning at 500 g for 10 minutes. Cut transfusion bag port off of Purecell leukocyte reduction neofilter (Fisher NCO267633) one (1) inch above filter. Attach a 10 ml syringe barrel to the remaining cut tubing attached to neofilter. The plasma layer was removed from the pellet of the whole blood and the pellet was resuspended in 2× volume of phosphate buffered saline (PBS). Transfer 9 ml re-suspended blood cell pellet to prepared 10 ml syringe that is attached to the neofilter. Allow whole blood to gravity flow through filter until all fluid runs through upper tubing into filter disc. Add plunger to the syringe, remove syringe from clamp and invert the filter, then plunge air through the syringe filter system. Using a new 5 ml syringe, remove filtered RBCs from the bag by the syringe port and transfer purified RBCs to a 5 ml snap cap tube that has been incubated on ice. Spin 5 ml snap cap tube at 500 g for 10 minutes at 15 C, aspirate supernatant and resuspend in AGAM (1×PBS, 1% glucose, 170 mg/L adenine, 5.25 g/L mannitol) at a density of 4×10^9 cells/mL.
Example 17. Cell Based ATP Assay
For cell based ATP assays, the compound as described herein was prepared in 100% DMSO as a 10 mM stock. Serial dilutions (1:4) were performed in 96-well V-bottom storage plate and then added 1:100 to 96-well V-bottom plates containing AGAM. RBCs were diluted in AGAM media to a density of 1×10^7 cells/mL before added 90 μL/well to black clear bottom assay plates (final compound concentration at 0.1% DMSO concentration). Assay plates were sealed using aluminum foil seals and incubated overnight at 37° C. in a humidified chamber. ATP levels were read out using Cell-Titer-Glo (Promega).

T1 sequence (P30613 whole entry): as the sequence (P30613 whole entry K410E) above, with E410K counted along it

Structure (SMILES) | AC50 (wild type PKR [1]) [nM] | AC50 (PKR K410E) [nM] | AC50 (PKR R510Q) [nM] | AC50 (wild type PKR [2]) [nM]
Cn1c2nc(Cc3cc[nH]n3)sc2c2cnn(Cc3cccc(N)n3)c(=O)c21 | < 300 | < 300 | < 300 | ≤ 1000
Cn1c2nc(Cc3cc[nH]n3)sc2c2cnn(Cc3csc(N)n3)c(=O)c21 | < 300 | < 300 | < 300 | ≤ 1000
Cn1c2nc(Cc3cc[nH]n3)sc2c2cnn(Cc3nccs3)c(=O)c21 | < 300 | < 300 | < 300 | ≤ 1000
Cn1c2nc(Cc3cc[nH]n3)sc2c2cnn(Cc3ncsc3Br)c(=O)c21 | < 300 | < 300 | < 300 | ≤ 1000
Cn1c2nc(Cc3n[nH]cc3F)sc2c2cnn(Cc3cc[nH]n3)c(=O)c21 | < 300 | < 300 | < 300 | ≤ 1000
Cc1ccc(Cn2ncc3c4sc(Cc5cc[nH]n5)nc4n(C)c3c2=O)nc1Cl | < 300 | < 300 | < 300 | ≤ 1000
Cn1c2nc(Cc3cc[nH]n3)sc2c2cnn(Cc3cc(F)[nH]n3)c(=O)c21 | < 300 | < 300 | < 300 | ≤ 1000
COc1scnc1Cn1ncc2c3sc(Cc4cc[nH]n4)nc3n(C)c2c1=O | < 300 | < 300 | < 300 | ≤ 1000
Cc1scnc1Cc1nc2c(s1)c1cnn(Cc3c[nH]nn3)c(=O)c1n2C | < 300 | < 300 | < 300 | ≤ 1000
Cn1c2nc(Cc3cc[nH]n3)sc2c2cnn(Cc3cc(C(N)=O)[nH]n3)c(=O)c21 | 301 to 800 | 301 to 800 | > 800 | > 1000
Cn1c2nc(Cc3ncsc3F)sc2c2cnn(Cc3cc[nH]n3)c(=O)c21 | < 300 | < 300 | < 300 | ≤ 1000
Cn1cc(Cn2ncc3c4sc(Cc5cc[nH]n5)nc4n(C)c3c2=O)nn1 | < 300 | < 300 | < 300 | ≤ 1000
Cn1c2nc(Cc3cc[nH]n3)sc2c2cnn(Cc3ccc(F)c(N)n3)c(=O)c21 | < 300 | < 300 | < 300 | ≤ 1000
Cn1ccc(Cn2ncc3c4sc(Cc5n[nH]cc5F)nc4n(C)c3c2=O)n1 | < 300 | < 300 | < 300 | ≤ 1000
Cn1c2nc(Cc3nc(N)sc3F)sc2c2cnn(Cc3c[nH]nn3)c(=O)c21 | < 300 | < 300 | < 300 | ≤ 1000
Cn1c2nc(Cc3ncsc3F)sc2c2cnn(Cc3c[nH]nn3)c(=O)c21 | < 300 | < 300 | < 300 | ≤ 1000
CCOC(c1cscn1)c1nc2c(s1)c1cnn(Cc3c[nH]nn3)c(=O)c1n2C (stereo not drawn) | > 800 | > 800 | > 800 | > 1000
Cn1c2nc(Cc3cc[nH]n3)sc2c2cnn(Cc3cccnc3)c(=O)c21 | < 300 | < 300 | < 300 | ≤ 1000
Cn1c2nc(Cc3cc[nH]n3)sc2c2cnn(Cc3ccccn3)c(=O)c21 | < 300 | < 300 | < 300 | ≤ 1000
Cn1c2nc(Cc3cc[nH]n3)sc2c2cnn(Cc3ccncc3)c(=O)c21 | < 300 | < 300 | < 300 | ≤ 1000
Cn1c2nc(Cc3cc[nH]n3)sc2c2cnn(Cc3ccc(=O)[nH]c3)c(=O)c21 | < 300 | < 300 | < 300 | ≤ 1000
